Laboratory results as given in PubChem BioAssay AID248 (DTP/NCI, 2004).
“And” between values parts separate entries of the source, which are not always exact repeats. Equal values may be shown once. Toxic doses and inconclusive results are not listed. No stated cut-off is given here; in the data, active means T/C of 150% or more; inactive means T/C below 125%.

Test system: L1210 leukemia ip in BDF1 mice, survival T/C
Experiment: NCI In Vivo Anticancer Drug Screen. Data for tumor model L1210 Leukemia (intraperitoneal) in B6D2F1 (BDF1) mice
Conditions: endpoint: mean survival time, higher = longer survival
How it was run: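 Mice bearing the transplanted tumor received compound or vehicle. Survival of the treated group was divided by that of the vehicle-treated control group to give the ratio.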

[1] = dose: 100.0 mg/kg/injection, schedule: Q04DX003 (ip), vehicle: saline with Tween-80
[2] = dose: 200.0 mg/kg/injection, schedule: Q04DX003 (ip), vehicle: saline with Tween-80
[3] = dose: 100.0 mg/kg/injection, schedule: Q04DX003 (ip), vehicle: saline
[4] = dose: 200.0 mg/kg/injection, schedule: Q04DX003 (ip), vehicle: saline
[5] = dose: 400.0 mg/kg/injection, schedule: Q04DX003 (ip), vehicle: saline
[6] = dose: 100.0 mg/kg/injection, schedule: Q04DX003 (ip), vehicle: Klucel (hydroxypropylcellulose) (HPC)
[7] = dose: 200.0 mg/kg/injection, schedule: Q04DX003 (ip), vehicle: Klucel (hydroxypropylcellulose) (HPC)
[8] = dose: 100.0 mg/kg/injection, schedule: Q01DX009 (ip), vehicle: saline with Tween-80
[9] = dose: 200.0 mg/kg/injection, schedule: Q01DX009 (ip), vehicle: saline with Tween-80
[10] = dose: 400.0 mg/kg/injection, schedule: Q01DX009 (ip), vehicle: saline with Tween-80
[11] = dose: 100.0 mg/kg/injection, schedule: Q01DX001 (ip), vehicle: Klucel (hydroxypropylcellulose) (HPC)
[12] = dose: 200.0 mg/kg/injection, schedule: Q01DX001 (ip), vehicle: Klucel (hydroxypropylcellulose) (HPC)
[13] = dose: 400.0 mg/kg/injection, schedule: Q01DX001 (ip), vehicle: Klucel (hydroxypropylcellulose) (HPC)
[14] = dose: 100.0 mg/kg/injection, schedule: Q01DX001 (ip), vehicle: saline with Tween-80
[15] = dose: 200.0 mg/kg/injection, schedule: Q01DX001 (ip), vehicle: saline with Tween-80
[16] = dose: 400.0 mg/kg/injection, schedule: Q01DX001 (ip), vehicle: saline with Tween-80
[17] = dose: 100.0 mg/kg/injection, schedule: Q01DX009 (ip), vehicle: Klucel (hydroxypropylcellulose) (HPC)
[18] = dose: 200.0 mg/kg/injection, schedule: Q01DX009 (ip), vehicle: Klucel (hydroxypropylcellulose) (HPC)
[19] = dose: 400.0 mg/kg/injection, schedule: Q04DX003 (ip), vehicle: Klucel (hydroxypropylcellulose) (HPC)
[20] = dose: 50.0 mg/kg/injection, schedule: Q01DX009 (ip), vehicle: Klucel (hydroxypropylcellulose) (HPC)
[21] = dose: 100.0 mg/kg/injection, schedule: Q01DX001 (ip), vehicle: saline

Measured: T/C

CCOC(=O)CCCc1ccc(N=NN(C)CC(C)C)cc1
inactive: dose: 100.0 mg/kg/injection, schedule: Q01DX001 (ip), vehicle: carboxymethylcellulose (CMC) 107 % of control | dose: 100.0 mg/kg/injection, schedule: Q01DX009 (ip), vehicle: carboxymethylcellulose (CMC) 116 % of control | dose: 200.0 mg/kg/injection, schedule: Q01DX001 (ip), vehicle: carboxymethylcellulose (CMC) 102 % of control | dose: 200.0 mg/kg/injection, schedule: Q01DX009 (ip), vehicle: carboxymethylcellulose (CMC) 107 % of control | dose: 400.0 mg/kg/injection, schedule: Q01DX001 (ip), vehicle: carboxymethylcellulose (CMC) 113 % of control

CN(C)C(=O)Nc1cccc(OC(=O)NCCCl)c1
inactive: [1] 96 % of control | [2] 94 % of control | dose: 400.0 mg/kg/injection, schedule: Q04DX003 (ip), vehicle: saline with Tween-80 94 % of control

O=C1Nc2ccccc2CCc2ccccc21
inactive: dose: 100.0 mg/kg/injection, schedule: Q01DX009 (ip), vehicle: saline 87 % of control | [3] 94 % of control | dose: 200.0 mg/kg/injection, schedule: Q01DX009 (ip), vehicle: saline 100 % of control | [4] 100 % of control | dose: 400.0 mg/kg/injection, schedule: Q01DX009 (ip), vehicle: saline 89 % of control | [5] 96 % of control

CC(C)c1ccc(/C=N\NC(=O)N/N=C/c2ccc(C(C)C)cc2)cc1
inactive: [6] 93 % of control | [7] 88 % of control

Cc1cccc2c1OC(=O)CCC21CCCCC1=O (configuration not stated)
inactive: [8] 101 % of control | [9] 98 % of control | [10] 97 % of control

Cc1c(Cl)cccc1NC(=O)c1ccc([N+](=O)[O-])cc1
inactive: [8] 91 % of control | [9] 89 % of control | [10] 89 % of control

Cc1cc(C)c(C)c(C(=O)O)c1C
inactive: dose: 100.0 mg/kg/injection, schedule: Q01DX001 (ip), vehicle: acetone 98 % of control | dose: 100.0 mg/kg/injection, schedule: Q01DX009 (ip), vehicle: acetone 101 % of control | [3] 88 % of control | dose: 200.0 mg/kg/injection, schedule: Q01DX001 (ip), vehicle: acetone 89 % of control | dose: 200.0 mg/kg/injection, schedule: Q01DX009 (ip), vehicle: acetone 106 % of control | [4] 102 % of control | dose: 400.0 mg/kg/injection, schedule: Q01DX001 (ip), vehicle: acetone 94 % of control | dose: 400.0 mg/kg/injection, schedule: Q01DX009 (ip), vehicle: acetone 105 % of control | [5] 112 % of control

COc1cc2c(c(OC)c1OC)-c1ccc(OC)c(=O)cc1[C@@H](NC(=O)CCl)CC2
inactive: dose: 0.06 mg/kg/injection, schedule: Q01DX009 (ip), vehicle: Klucel (hydroxypropylcellulose) (HPC) 108 % of control | dose: 0.12 mg/kg/injection, schedule: Q01DX009 (ip), vehicle: Klucel (hydroxypropylcellulose) (HPC) 110 % of control | dose: 0.14 mg/kg/injection, schedule: Q01DX009 (ip), vehicle: saline 115 % of control | dose: 0.18 mg/kg/injection, schedule: Q04DX003 (ip), vehicle: Klucel (hydroxypropylcellulose) (HPC) 102 % of control | dose: 0.23 mg/kg/injection, schedule: Q01DX009 (ip), vehicle: saline 121 % of control | dose: 0.25 mg/kg/injection, schedule: Q01DX009 (ip), vehicle: Klucel (hydroxypropylcellulose) (HPC) 118 % of control and 124 % of control | dose: 0.37 mg/kg/injection, schedule: Q04DX003 (ip), vehicle: Klucel (hydroxypropylcellulose) (HPC) 119 % of control | dose: 0.75 mg/kg/injection, schedule: Q04DX003 (ip), vehicle: Klucel (hydroxypropylcellulose) (HPC) 120 % of control

CCCCCCCCCCCCOc1ccccc1OC
inactive: [11] 89 % of control | [12] 90 % of control | [13] 95 % of control

COC(O)C(O)C(O)C(O)CO (configuration not stated) (tested in a mixture with another compound)
inactive: [14] 90 % of control | [15] 97 % of control | [16] 93 % of control

c1ccc2cc(-c3csc4ccccc34)ccc2c1
inactive: [17] 104 % of control | [6] 110 % of control | [18] 94 % of control | [7] 97 % of control | dose: 400.0 mg/kg/injection, schedule: Q01DX009 (ip), vehicle: Klucel (hydroxypropylcellulose) (HPC) 103 % of control | [19] 100 % of control

Cc1ncsc1CCO
inactive: [14] 98 % of control | [15] 102 % of control | [16] 94 % of control

CCOC(=O)CC(=O)c1ccc(C(=O)CC(=O)O)cc1 (tested in a mixture with another compound)
inactive: dose: 25.6 mg/kg/injection, schedule: Q04DX002 (ip), vehicle: saline with Tween-80 87 % of control | dose: 50.0 mg/kg/injection, schedule: Q01DX009 (ip), vehicle: saline with Tween-80 89 % of control | dose: 64.0 mg/kg/injection, schedule: Q04DX002 (ip), vehicle: saline with Tween-80 95 % of control | [8] 96 % of control | [1] 90 % of control | dose: 160.0 mg/kg/injection, schedule: Q04DX002 (ip), vehicle: saline with Tween-80 91 % of control | [9] 88 % of control | [2] 87 % of control | dose: 400.0 mg/kg/injection, schedule: Q04DX002 (ip), vehicle: saline with Tween-80 87 % of control

CCc1ccc(NC(=O)NC(C)C)cc1
inactive: [20] 113 % of control | [17] 91 % of control | [6] 103 % of control | [18] 103 % of control | [7] 92 % of control

NCC1CCNCC1
inactive: dose: 25.0 mg/kg/injection, schedule: Q04DX002 (ip), vehicle: saline 103 % of control | dose: 50.0 mg/kg/injection, schedule: Q04DX002 (ip), vehicle: saline 97 % of control and 100 % of control | dose: 100.0 mg/kg/injection, schedule: Q04DX002 (ip), vehicle: saline 103 % of control and 106 % of control | dose: 200.0 mg/kg/injection, schedule: Q04DX002 (ip), vehicle: saline 102 % of control and 90 % of control | dose: 400.0 mg/kg/injection, schedule: Q04DX002 (ip), vehicle: saline 97 % of control

C/C(=N\NC(=S)Nc1cc(Cl)ccc1Cl)c1ccc(O)cc1O
inactive: [11] 88 % of control | [12] 96 % of control | [13] 95 % of control

CCCCCCCCCC(=O)N1CCCN(C(=O)CCCCCCCCC)C1
inactive: dose: 30.0 mg/kg/injection, schedule: Q01DX001 (ip), vehicle: saline 102 % of control | [21] 98 % of control | dose: 300.0 mg/kg/injection, schedule: Q01DX001 (ip), vehicle: saline 93 % of control

CCO/C=C1\SC(=S)N(c2ccc(O)cc2)C1=O
inactive: dose: 12.5 mg/kg/injection, schedule: Q01DX009 (ip), vehicle: Klucel (hydroxypropylcellulose) (HPC) 103 % of control | dose: 25.0 mg/kg/injection, schedule: Q01DX009 (ip), vehicle: Klucel (hydroxypropylcellulose) (HPC) 101 % of control | [20] 105 % of control | [17] 103 % of control | dose: 100.0 mg/kg/injection, schedule: Q01DX009 (ip), vehicle: other 104 % of control | [6] 98 % of control | dose: 100.0 mg/kg/injection, schedule: Q04DX003 (ip), vehicle: saline sonified 96 % of control | dose: 200.0 mg/kg/injection, schedule: Q01DX009 (ip), vehicle: other 108 % of control | [7] 98 % of control | dose: 200.0 mg/kg/injection, schedule: Q04DX003 (ip), vehicle: saline sonified 97 % of control | [19] 89 % of control | dose: 400.0 mg/kg/injection, schedule: Q04DX003 (ip), vehicle: saline sonified 99 % of control

CC(C)(CCN)[N+](=O)[O-]
inactive: [21] 96 % of control | dose: 200.0 mg/kg/injection, schedule: Q01DX001 (ip), vehicle: saline 96 % of control | dose: 400.0 mg/kg/injection, schedule: Q01DX001 (ip), vehicle: saline 102 % of control

CCOC(=O)c1cn2ccc3ccccc3c2n1
inactive: [11] 103 % of control | [12] 98 % of control | [13] 98 % of control
